Patent US20230095695A1, “RNAS FOR COMPLEMENT INHIBITION” (Apellis Pharmaceuticals, Inc., priority 2020, published 2023)
Oligonucleotides are written 5' to 3', each unit as a sugar letter and its base; * is a phosphorothioate linkage, no mark a phosphodiester; rarer units and linkages stand in square brackets, end groups in braces. Plain capitals give the bases only. m = 2'-O-methyl; f = 2'-fluoro

What was measured:
C3 mRNA [1] = test: Dose response experiment (DRC), C3 mRNA knockdown in HeLa cells; assay type: cell-based, human; conditions: 10 concentrations from 100 nM in 6-fold dilution steps
Procedure: The top 12 siRNAs with the best activity at both doses were chosen to be tested in a dose response experiment (DRC). Dose-response experiments were done with siRNA in 10 concentrations transfected in quadruplicates, starting at 100 nM in 6-fold dilutions steps down to ˜10 fM. Mock transfected cells served as control in DRC experiments.
(§1) For each well, the target mRNA level was normalized to the respective GAPDH mRNA level. The activity of a given siRNA was expressed as percent mRNA concentration of the respective target (normalized to GAPDH mRNA) in treated cells, relative to the target mRNA concentration (normalized to GAPDH mRNA) averaged across mock transfected wells (DRCs).

C3 mRNA [2] = test: Dose response experiments (DRC) of modification variants, C3 mRNA knockdown in HepG2 cells; assay type: cell-based, human; conditions: for IC50 / IC80: 10 concentrations from 100 nM in 6-fold dilution steps; for Max KD: DRC experiments
Procedure: HepG2 cells were obtained from ATCC (ATCC in partnership with LGC Standards, Wesel, Germany, cat. #ATCC-HB-8065) and cultured in MEM Eagle (#M2279, Sigma-Aldrich, Germany), supplemented to contain 10% fetal calf serum (#1248D, Biochrom GmbH, Berlin, Germany), 1× non-essential amino acids (#K0293; Biochrom, Berlin, Germany), 4 mM L-Glutamine (#K0283, Biochrom, Berlin, Germany) and 100 U/ml Penicillin/100 μg/ml Streptomycin (#A2213, Biochrom GmbH, Berlin, Germany) at 37° C. in an atmosphere with 5% CO2 in a humidified incubator.
siRNAs were designed and synthesized based on the nucleotide sequence of the top siRNAs in terms of activity from Examples 1 and 2 (siRNA ID: 1, 4, 9, 10, 16, and 22) with different modification patterns. 5 “variants” were designed and synthesized for each of the top siRNA nucleotide sequences, and each duplex is identified as “variant1”, “variant2”, “variant3”, variant4”, “variant5” depending on which modifications were made. siRNAs from Examples 1 and 2 (siRNA ID: 1, 4, 9, 10, 16, and 22) are identified as “variant0”.
Transfection of siRNA was carried out with Lipofectamine RNAiMax (Invitrogen/Life Technologies, Karlsruhe, Germany) according to manufacturer's instructions for reverse transfection.
Each siRNA was tested using dose response experiments (DRC) in HepG2 cells. Two additional siRNAs (siRNA ID 26 and 27), known to knockdown C3 expression, were used as positive controls.
Dose-response experiments were done with siRNA in 10 concentrations transfected in quadruplicates, starting at 100 nM in 6-fold dilutions steps down to ˜10 fM. Mock transfected cells served as negative controls.
as §1

| Substance | IC50 (C3 mRNA [1]) [nM] | IC80 (C3 mRNA [1]) [nM] | IC50 (C3 mRNA [2]) [nM] | IC80 (C3 mRNA [2]) [nM] | Max KD (C3 mRNA [2]) [%] | C3 knockdown, comparison among modification variants of the same nucleotide sequence (C3 mRNA [2]) |
| --- | --- | --- | --- | --- | --- | --- |
| 1 (sense mU*mC*fAmAmCmUfCfAfCmCmUfGmUmAmAmUfAmAmA; antisense mU*fU*mUmAmUmUmAmCmAmGmGmUmGfAmGmUmUmGmA*mU*mU; siRNA) [compound 1] | 0.086 | 12.7 | 0.345 | 2.2 | 84 |  |
| 4 (sense mU*mC*fCmAmAmGfCfCfUmUmGfGmCmUmCmAfAmUmA; antisense mU*fA*mUmUmGmAmGmCmCmAmAmGmGfCmUmUmGmGmA*mU*mU; siRNA) [compound 4] | 0.208 | 11.8 | 0.179 | 0.885 | 91 |  |
| 9 (sense mA*mU*fCmGmGmAfUfCfUmUmCfAmCmCmGmUfCmAmA; antisense mU*fU*mGmAmCmGmGmUmGmAmAmGmAfUmCmCmGmAmU*mU*mU; siRNA) [compound 9] | 0.751 |  | 0.21 | 1.32 | 90 |  |
| 10 (sense mU*mC*fAmAmCmUfUfCfCmUmCfCmUmGmCmGfAmAmA; antisense mU*fU*mUmCmGmCmAmGmGmAmGmGmAfAmGmUmUmGmA*mU*mU; siRNA) [compound 10] | 0.172 |  | 0.024 | 2.8 | 90 |  |
| 16 (sense mC*mA*fAmUmGmAfCfUfUmUmGfAmCmGmAmGfUmAmA; antisense mU*fU*mAmCmUmCmGmUmCmAmAmAmGfUmCmAmUmUmG*mU*mU; siRNA) [compound 16] | 0.087 | 6.19 | 0.315 | 6.53 | 83 |  |
| 22 (sense mC*mC*fAmAmCmUfAfCfAmUmGfAmAmCmCmUfAmCmA; antisense mU*fG*mUmAmGmGmUmUmCmAmUmGmUfAmGmUmUmGmG*mU*mU; siRNA) [compound 22] | 0.246 |  | 0.054 | 0.475 | 91 | most effective in C3 knockdown |
